The source made the active and inactive calls. The rule behind the calls is not given here.
Assays:
[1] = molecular target: T1, S-ribosylhomocysteine lyase (Bacillus subtilis (strain 168)) (UniProt O34667); test: Inhibition of Bacillus subtilis LuxS at 20 to 50 uM by UV-vis spectrophotometric analysis; settings: TDE = time-dependent effect
T1 sequence (whole entry): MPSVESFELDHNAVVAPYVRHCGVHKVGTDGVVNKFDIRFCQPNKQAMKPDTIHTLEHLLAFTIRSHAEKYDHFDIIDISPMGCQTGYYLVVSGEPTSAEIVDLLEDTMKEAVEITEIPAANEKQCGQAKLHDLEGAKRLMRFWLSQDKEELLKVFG

[2] = molecular target: T1, S-ribosylhomocysteine lyase (Bacillus subtilis (strain 168)); test: Competitive inhibition of Bacillus subtilis LuxS preincubated for 30 mins by UV-vis spectrophotometric analysis
[3] = molecular target: T2, S-ribosylhomocysteine lyase (Bacillus subtilis (strain 168), UniProt O34667); test: as above
T2 sequence (O34667 whole entry): T1 sequence (whole entry)

[4] = molecular target: T1, S-ribosylhomocysteine lyase (Bacillus subtilis (strain 168)); test: Inhibition of Bacillus subtilis LuxS preincubated for 15 mins by UV-vis spectrophotometric analysis
[5] = molecular target: T1, S-ribosylhomocysteine lyase (Bacillus subtilis (strain 168)); test: Competitive inhibition of Bacillus subtilis LuxS preincubated for 15 mins by UV-vis spectrophotometric analysis

| SMILES | inhibition [4] | other results |
| --- | --- | --- |
| N[C@@H](CCSC[C@H]1NC(O)[C@H](O)[C@@H]1O)C(=O)O (mixture of isomers) | – | inhibition [1]: tde; Ki [2]: 3.5 µM; IC50 [3]: 60 µM |
| N[C@@H](CCSC[C@@H]1CCC(O)N1)C(=O)O (mixture of isomers) | inactive | – |
| CC1=N[C@H](CSCCC(N)C(=O)O)[C@@H](O)[C@H]1O (mixture of isomers) | inactive | – |
| N[C@@H](CCSC[C@H]1NC[C@H](O)[C@@H]1O)C(=O)O | – | inhibition [5]: Dose-dependent effect |
| NC(CCSC[C@@H]1CCC(=O)N1)C(=O)O (mixture of isomers) | inactive | – |
| N[C@@H](CCSC[C@@H]1[C@@H](O)[C@@H](O)C(=O)N1Cc1ccccc1)C(=O)O | inactive | – |
| CCCSC[C@@H]1CCC(O)N1 (mixture of isomers) | inactive | – |
